From PubChem BioAssay AID2060512 (Molecular Pharmacology Branch, DTP, NCI, 2025)

System: 186277-243-T-J2-PDC complex spheroid viability
Assay: Anticancer human tumor 186277-243-T-J2-PDC patient-derived colon adenocarcinoma cell line growth inhibition [GQUAD]
Details: for IC50: curve of first compound; for viability, T/C: stronger effect = lower value
Description: DNA G-quadruplex Stabilizer Agents in Combinations in Complex Spheroids
A high-throughput screen of multi-cell type tumor spheroids was designed to identify active combinations of DNA G-quadruplex stabilizer agents and targeted small molecules. Complex spheroids include a stromal component modeled by human endothelial cells (HUVEC) and fibroblasts modeled by human mesenchymal stem cells (MSCs). The concentration ranges selected for each drug and investigational agent were based upon clinically achievable concentrations if the clinical Cmax of the agent was known.
Compounds. The drugs and investigational agents: pidnarulex (CX-5461; NSC782164), APTO-253 (NSC789042), BRACO-19 (NSC847499), peposertib (NSC802822), ceralasertib (NSC780249), elimusertib (NSC800525), camonsertib (NSC841442), AZD-1390 (NSC803789), olaparib (NSC753686), talazoparib (NSC767125), ART-558 (NSC835418), sotorasib (NSC818433), MRTX-1133 (NSC836407), SN-38 (NSC673596), topotecan (NSC609699), etoposide (NSC141540), doxorubicin (NSC123127), gemcitabine (NSC613327), 5-fluorouracil (NSC19893), paclitaxel (NSC125973), vemurafenib (NSC761431), panobinostat (NSC761190), R-306465 (JNJ-16241199; NSC773264), adavosertib (NSC754352), TP-3654 (NSC805149), carboplatin (NSC241240), KSQ-4279 (NSC840948), and staurosporine (NSC755774) were obtained from the National Cancer Institute (NCI) Developmental Therapeutics Program Chemical Repository (34). The FDA-approved anticancer drug set is available from the NCI Developmental Therapeutics Program. […] The stock solutions were prepared in dimethyl sulfoxide (DMSO, Sigma-Aldrich, St. Louis, MO, cat. D2650) at 800-fold the tested concentration and stored at -70 degrees C prior to their use. All drugs and investigational agents were tested over a range starting from a high concentration at or near the clinical Cmax and decreasing in half-log increments. If the clinical Cmax for an agent had not been determined, the highest concentration tested was 10 microM.
2.3 Cell Culture. All cells were maintained in an incubator at 37 degrees C and 5% CO2 with 95% humidity. The PDC lines were cultured according to standard operating procedures established by the NCI PDMR. All PDCs were thawed and cultured in Matrigel-coated flasks prepared with a working solution of 1X Ham's F-12 nutrient mix, without supplementation (Invitrogen, cat. 11765054), 100 U/mL penicillin-streptomycin (Invitrogen, cat. 15140122), and 2.5% Matrigel (Corning Inc., cat. 354248) for the first three passages. The 857933-349-R-J2-PDC line was cultured in 6C/Colon 1B media, which includes advanced DMEM/F-12 (Thermo Fisher Scientific, cat. 12634028), 10 mM HEPES (Thermo Fisher Scientific, cat. 15630080), 1X GlutaMAX supplement (Thermo Fisher Scientific, cat. 35050061), 0.1 mg/mL primocin (InvivoGen, cat. ant-pm-2), 10% defined fetal bovine serum, heat inactivated (HyClone Laboratories Inc., cat. SH30070.03HI), 50% L-WRN conditioned media (ATCC, cat. CRL-3276), 1.25 mM N-Acetyl-L-cysteine (Sigma-Aldrich, cat. A9165), 10 mM nicotinamide (Sigma-Aldrich, cat. N0636), 1X B-27 supplement (Thermo Fisher Scientific, cat. 17504044), 1X N-2 supplement (Thermo Fisher Scientific, cat. 17502048), 10 microM Y-27632 dihydrochloride (Tocris Bioscience, cat. 1254), and 50 ng/mL human EGF recombinant protein (Thermo Fisher Scientific, cat. PHG0311). The 485176-168-R4-J1-PDC line was cultured in Panc media, which includes all 6C/Colon 1B media components plus 100 ng/mL human FGF-10 (Thermo Fisher Scientific, cat. 100-26), 500 nM SB-431542 (Selleckchem, cat. S1067), and gastrin (Tocris, cat. 3006).
[…]

[1] = second compound 0.0316 µM, first compound 0.0316 µM
[2] = second compound 0.0316 µM, first compound 0.1 µM
[3] = second compound 0.0316 µM, first compound 0.316 µM
[4] = second compound 0.0316 µM, first compound 1 µM
[5] = second compound 0.0316 µM, first compound 3.16 µM
[6] = second compound 0.0316 µM, first compound 10 µM
[7] = second compound 0.1 µM, first compound 0.0316 µM
[8] = second compound 0.1 µM, first compound 0.1 µM
[9] = second compound 0.1 µM, first compound 0.316 µM
[10] = second compound 0.1 µM, first compound 1 µM
[11] = second compound 0.1 µM, first compound 3.16 µM
[12] = second compound 0.1 µM, first compound 10 µM
[13] = second compound 0.316 µM, first compound 0.0316 µM
[14] = second compound 0.316 µM, first compound 0.1 µM
[15] = second compound 0.316 µM, first compound 0.316 µM
[16] = second compound 0.316 µM, first compound 1 µM
[17] = second compound 0.316 µM, first compound 3.16 µM
[18] = second compound 0.316 µM, first compound 10 µM
[19] = second compound 1 µM, first compound 0.0316 µM
[20] = second compound 1 µM, first compound 0.1 µM
[21] = second compound 1 µM, first compound 0.316 µM
[22] = second compound 1 µM, first compound 1 µM
[23] = second compound 1 µM, first compound 3.16 µM
[24] = second compound 1 µM, first compound 10 µM
[25] = second compound 3.16 µM, first compound 0.0316 µM
[26] = second compound 3.16 µM, first compound 0.1 µM
[27] = second compound 3.16 µM, first compound 0.316 µM
[28] = second compound 3.16 µM, first compound 1 µM
[29] = second compound 3.16 µM, first compound 3.16 µM
[30] = second compound 3.16 µM, first compound 10 µM
[31] = second compound 10 µM, first compound 0.0316 µM
[32] = second compound 10 µM, first compound 0.1 µM
[33] = second compound 10 µM, first compound 0.316 µM
[34] = second compound 10 µM, first compound 1 µM
[35] = second compound 10 µM, first compound 3.16 µM
[36] = second compound 10 µM, first compound 10 µM
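Further: spheroids exposed to drugs for 7 days.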
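Wherever viability, T/C is given: 100% = DMSO vehicle control viability.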

Compound: CC1COCCN1c1cc(C2(O)CC3CCC(C2)O3)c2cnn(-c3ccn[nH]3)c2n1 (stereo unspecified) + CN(C)c1ccc(Nc2c3ccc(NC(=O)CCN4CCCC4)cc3nc3cc(NC(=O)CCN4CCCC4)ccc23)cc1
- IC50 (second compound 0.0316 µM): 32.6 nM
- IC50 (second compound 0.1 µM): 33.1 nM
- IC50 (second compound 0.316 µM): 34.7 nM
- IC50 (second compound 1 µM): < 31.6 nM
- IC50 (second compound 3.16 µM): < 31.6 nM
- IC50 (second compound 10 µM): < 31.6 nM
- viability, T/C [1]: 51.2%
- viability, T/C [2]: 8.79%
- viability, T/C [3]: 6.01%
- viability, T/C [4]: 4%
- viability, T/C [5]: 5.01%
- viability, T/C [6]: 3.88%
- viability, T/C [7]: 51.8%
- viability, T/C [8]: 12%
- viability, T/C [9]: 7.24%
- viability, T/C [10]: 3.82%
- viability, T/C [11]: 4.81%
- viability, T/C [12]: 3.87%
- viability, T/C [13]: 53.7%
- viability, T/C [14]: 8.92%
- viability, T/C [15]: 4.46%
- viability, T/C [16]: 3.99%
- viability, T/C [17]: 5.18%
- viability, T/C [18]: 3.41%
- viability, T/C [19]: 42.9%
- viability, T/C [20]: 9.66%
- viability, T/C [21]: 5.45%
- viability, T/C [22]: 4.14%
- viability, T/C [23]: 5.22%
- viability, T/C [24]: 3.81%
- viability, T/C [25]: 47%
- viability, T/C [26]: 12.8%
- viability, T/C [27]: 5.73%
- viability, T/C [28]: 3.69%
- viability, T/C [29]: 4.72%
- viability, T/C [30]: 3.34%
- viability, T/C [31]: 46.5%
- viability, T/C [32]: 11.9%
- viability, T/C [33]: 6.88%
- viability, T/C [34]: 3%
- viability, T/C [35]: 3.63%
- viability, T/C [36]: 2.56%

Compound: CC(C)(O)C1CCC(Nc2ccc3ncc(-c4cccc(C(F)(F)F)c4)n3n2)CC1 (stereo unspecified) + Cc1[nH]c2ccc(F)cc2c1-c1nc2c3cccnc3c3ncccc3c2[nH]1
- IC50 (second compound 0.0316 µM): 2550 nM
- IC50 (second compound 0.1 µM): 3840 nM
- IC50 (second compound 0.316 µM): 2870 nM
- IC50 (second compound 1 µM): 2750 nM
- IC50 (second compound 3.16 µM): 2450 nM
- IC50 (second compound 10 µM): 2190 nM
- viability, T/C [1]: 105%
- viability, T/C [2]: 87.1%
- viability, T/C [3]: 86.5%
- viability, T/C [4]: 80.9%
- viability, T/C [5]: 42.2%
- viability, T/C [6]: 29.2%
- viability, T/C [7]: 100%
- viability, T/C [8]: 103%
- viability, T/C [9]: 78.8%
- viability, T/C [10]: 83.3%
- viability, T/C [11]: 49.8%
- viability, T/C [12]: 32.1%
- viability, T/C [13]: 90%
- viability, T/C [14]: 110%
- viability, T/C [15]: 97.3%
- viability, T/C [16]: 91.8%
- viability, T/C [17]: 46.1%
- viability, T/C [18]: 32.6%
- viability, T/C [19]: 98.8%
- viability, T/C [20]: 97%
- viability, T/C [21]: 90.5%
- viability, T/C [22]: 107%
- viability, T/C [23]: 41.7%
- viability, T/C [24]: 45%
- viability, T/C [25]: 95.6%
- viability, T/C [26]: 115%
- viability, T/C [27]: 107%
- viability, T/C [28]: 90.9%
- viability, T/C [29]: 37.9%
- viability, T/C [30]: 38.6%
- viability, T/C [31]: 91%
- viability, T/C [32]: 111%
- viability, T/C [33]: 113%
- viability, T/C [34]: 87.4%
- viability, T/C [35]: 29.4%
- viability, T/C [36]: 35.3%

Compound: COc1cccc2c1C(=O)c1c(O)c3c(c(O)c1C2=O)CC(O)(C(=O)CO)CC3OC1CC(N)C(O)C(C)O1 (stereo unspecified) + CN(C)c1ccc(Nc2c3ccc(NC(=O)CCN4CCCC4)cc3nc3cc(NC(=O)CCN4CCCC4)ccc23)cc1
- IC50 (second compound 0.0316 µM): 390 nM
- IC50 (second compound 0.1 µM): 369 nM
- IC50 (second compound 0.316 µM): 311 nM
- IC50 (second compound 1 µM): 280 nM
- IC50 (second compound 3.16 µM): 380 nM
- IC50 (second compound 10 µM): 438 nM
- viability, T/C [1]: 109%
- viability, T/C [2]: 94.3%
- viability, T/C [3]: 59.1%
- viability, T/C [4]: 14.6%
- viability, T/C [5]: 0.22%
- viability, T/C [6]: 0.33%
- viability, T/C [7]: 96.2%
- viability, T/C [8]: 93.8%
- viability, T/C [9]: 54.8%
- viability, T/C [10]: 13%
- viability, T/C [11]: 0.14%
- viability, T/C [12]: 0.11%
- viability, T/C [13]: 107%
- viability, T/C [14]: 78.9%
- viability, T/C [15]: 53.6%
- viability, T/C [16]: 19.4%
- viability, T/C [17]: 0.17%
- viability, T/C [18]: 0.49%
- viability, T/C [19]: 105%
- viability, T/C [20]: 88.9%
- viability, T/C [21]: 43.2%
- viability, T/C [22]: 16.6%
- viability, T/C [23]: 0.37%
- viability, T/C [24]: 0.6%
- viability, T/C [25]: 109%
- viability, T/C [26]: 91%
- viability, T/C [27]: 56.4%
- viability, T/C [28]: 19.8%
- viability, T/C [29]: 0.3%
- viability, T/C [30]: 0.16%
- viability, T/C [31]: 97.7%
- viability, T/C [32]: 81.6%
- viability, T/C [33]: 63.5%
- viability, T/C [34]: 21.9%
- viability, T/C [35]: 1.2%
- viability, T/C [36]: 0.25%
